# Assay results published in US4684664A, “Derivatives of β-(4-isocyano-1,2,3,4-diepoxycyclopentyl) acrylic acid” (Kureha Kagaku Kogyo Kabushiki Kaisha, priority 1984, dated 1987).
# How the values were obtained:
# Format in all cases: cell-based
# [1] = system: Staphylococcus aureus FDA 209PJc-1; test: Antibacterial activity, agar-dilution MIC, organism No. 1; conditions: Staphylococcus aureus, FDA209PJC1; Organism No. 1, bouillon-agar; read-out: Minimum Inhibitory Concentration
# Procedure, shortened: (§1)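 Values come from agar-dilution plates prepared with bouillon agar; they represent the least specimen concentration (μg/ml of medium) giving inhibition.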
# [2] = system: Staphylococcus aureus Terajima; test: Antibacterial activity, agar-dilution MIC, organism No. 2; conditions: Staphylococcus aureus; Organism No. 2, bouillon-agar; read-out: Minimum Inhibitory Concentration
# Procedure, shortened: as §1
# [3] = system: Staphylococcus aureus MS 353; test: Antibacterial activity, agar-dilution MIC, organism No. 3; conditions: Staphylococcus aureus, MS353; Organism No. 3, bouillon-agar; read-out: Minimum Inhibitory Concentration
# Procedure, shortened: as §1
# [4] = system: Streptococcus pyogenes Cook; test: Antibacterial activity, agar-dilution MIC, organism No. 4; conditions: Streptococcus pyogenes; Organism No. 4, bouillon-agar; read-out: Minimum Inhibitory Concentration
# Procedure, shortened: as §1
# [5] = system: Escherichia coli NIHJ-JC-2; test: Antibacterial activity, agar-dilution MIC, organism No. 5; conditions: Escherichia coli, NIHJJC2; Organism No. 5, bouillon-agar; read-out: Minimum Inhibitory Concentration
# Procedure, shortened: as §1
# [6] = system: Escherichia coli K12 C600 IAM 1264; test: Antibacterial activity, agar-dilution MIC, organism No. 6; conditions: Escherichia coli, IAM1264; Organism No. 6, bouillon-agar; read-out: Minimum Inhibitory Concentration
# Procedure, shortened: as §1
# [7] = system: Klebsiella pneumoniae PCI-602; test: Antibacterial activity, agar-dilution MIC, organism No. 7; conditions: Klebsiella pneumoniae, PCI602; Organism No. 7, bouillon-agar; read-out: Minimum Inhibitory Concentration
# Procedure, shortened: as §1
# [8] = system: Salmonella typhimurium IID 971; test: Antibacterial activity, agar-dilution MIC, organism No. 8; conditions: Salmonella enterica; Organism No. 8, bouillon-agar; read-out: Minimum Inhibitory Concentration
# Procedure, shortened: as §1
# Salmonella typhi 901 = test: Antibacterial activity, agar-dilution MIC, organism No. 9; conditions: Salmonella enterica, TYPHI, read-out: Minimum Inhibitory Concentration
# Procedure, shortened: as §1
# [9] = system: Salmonella paratyphi-A 1015; test: Antibacterial activity, agar-dilution MIC, organism No. 10; conditions: Salmonella enterica, PARATYPHI, read-out: Minimum Inhibitory Concentration
# Procedure, shortened: as §1
# [10] = system: Salmonella shottmuelleri 8006; test: Antibacterial activity, agar-dilution MIC, organism No. 11; conditions: Salmonella, 8006; Organism No. 11, bouillon-agar; read-out: Minimum Inhibitory Concentration
# Procedure, shortened: as §1
# [11] = system: Salmonella enteritidis G 14; test: Antibacterial activity, agar-dilution MIC, organism No. 12; conditions: Salmonella enterica, ENTERITIDIS; Organism No. 12, bouillon-agar; read-out: Minimum Inhibitory Concentration
# Procedure, shortened: as §1
# [12] = system: Serratia marcescens IAM 1184; test: Antibacterial activity, agar-dilution MIC, organism No. 13; conditions: Serratia marcescens, IAM1184; Organism No. 13, bouillon-agar; read-out: Minimum Inhibitory Concentration
# Procedure, shortened: as §1
# [13] = system: Bacillus subtilis ATCC 6633; test: Antibacterial activity, agar-dilution MIC, organism No. 14; conditions: Bacillus subtilis, ATCC6633; Organism No. 14, bouillon-agar; read-out: Minimum Inhibitory Concentration
# Procedure, shortened: as §1
# [14] = system: Pseudomonas aeruginosa IFO 3445; test: Antibacterial activity, agar-dilution MIC, organism No. 15; conditions: Pseudomonas aeruginosa, IFO3445; Organism No. 15, bouillon-agar; read-out: Minimum Inhibitory Concentration
# Procedure, shortened: as §1
# [15] = system: Pseudomonas aeruginosa NCTC 10490; test: Antibacterial activity, agar-dilution MIC, organism No. 16; conditions: Pseudomonas aeruginosa, NCTC10490; Organism No. 16, bouillon-agar; read-out: Minimum Inhibitory Concentration
# Procedure, shortened: as §1
# [16] = system: Pseudomonas aeruginosa PAO 1; test: Antibacterial activity, agar-dilution MIC, organism No. 17; conditions: Pseudomonas aeruginosa, PAO1; Organism No. 17, bouillon-agar; read-out: Minimum Inhibitory Concentration
# Procedure, shortened: as §1
# [17] = system: Proteus morganii IFO 3848; test: Antibacterial activity, agar-dilution MIC, organism No. 18; conditions: Morganella morganii, IFO3848; Organism No. 18, bouillon-agar; read-out: Minimum Inhibitory Concentration
# Procedure, shortened: as §1
# [18] = system: Proteus mirabilis IFO 3849; test: Antibacterial activity, agar-dilution MIC, organism No. 19; conditions: Proteus mirabilis, IFO3849; Organism No. 19, bouillon-agar; read-out: Minimum Inhibitory Concentration
# Procedure, shortened: as §1
# Proteus vulgaris OX-19 = test: Antibacterial activity, agar-dilution MIC, organism No. 20; conditions: Proteus vulgaris, OX19; Organism No. 20, bouillon-agar; read-out: Minimum Inhibitory Concentration
# Procedure, shortened: as §1
# Proteus vulgaris HX-19 = test: Antibacterial activity, agar-dilution MIC, organism No. 21; conditions: Proteus vulgaris, HX19; Organism No. 21, bouillon-agar; read-out: Minimum Inhibitory Concentration
# Procedure, shortened: as §1
# [19] = system: Proteus rettgeri IFO 3850; test: Antibacterial activity, agar-dilution MIC, organism No. 22; conditions: Providencia rettgeri, IFO3850; Organism No. 22, bouillon-agar; read-out: Minimum Inhibitory Concentration
# Procedure, shortened: as §1
# [20] = system: Enterobacter aerogenes ATCC 13048; test: Antibacterial activity, agar-dilution MIC, organism No. 23; conditions: Klebsiella aerogenes, ATCC13048; Organism No. 23, bouillon-agar; read-out: Minimum Inhibitory Concentration
# Procedure, shortened: as §1
# Enterobacter cloacae 963 = test: Antibacterial activity, agar-dilution MIC, organism No. 24; conditions: Enterobacter cloacae, 963; Organism No. 24, bouillon-agar; read-out: Minimum Inhibitory Concentration
# Procedure, shortened: as §1
# [21] = system: Micrococcus luteus ATCC 9341; test: Antibacterial activity, agar-dilution MIC, organism No. 25; conditions: Micrococcus luteus, ATCC9341; Organism No. 25, bouillon-agar; read-out: Minimum Inhibitory Concentration
# Procedure, shortened: as §1
# [22] = system: Streptococcus pyogenes IFO 3340; test: Antibacterial activity, agar-dilution MIC, organism No. 26; conditions: Streptococcus pyogenes, IFO3340; Organism No. 26, bouillon-agar; read-out: Minimum Inhibitory Concentration
# Procedure, shortened: as §1
# [23] = system: Streptococcus faecium IFO 3826; test: Antibacterial activity, agar-dilution MIC, organism No. 27; conditions: Enterococcus faecium, IFO3826; Organism No. 27, bouillon-agar; read-out: Minimum Inhibitory Concentration
# Procedure, shortened: as §1
# [24] = system: Mycoplasma pneumoniae IID817; test: Antimycoplasmal activity, MIC by phenol red colour change, organism No. 28; conditions: Mycoplasma, IID817; Organism No. 28, PPLO broth + 1% glucose, 37° C.; read-out: Minimum Inhibitory Concentration (MIC)
# Experimental: Mycoplasma pneumoniae IID817 was used as the test microorganism in a culture medium prepared by adding 1% of glucose to "PPLO broth (manufactured by Difco Co.) liquid culture medium" at 37° C. with phenol red as an indicator, thereby culturing the test microorganism.
# [25] = system: Candida albicans IAM 4905; test: Antifungal activity, agar-dilution MIC, organism No. 29; conditions: Candida albicans, IAM4905; Organism No. 29, bouillon-agar; read-out: Minimum Inhibitory Concentration
# Procedure, shortened: as §1
# [26] = system: Aspergillus niger IFO 6342; test: Antifungal activity, agar-dilution MIC, organism No. 30; conditions: Aspergillus niger, IFO6342; Organism No. 30, bouillon-agar; read-out: Minimum Inhibitory Concentration
# Procedure, shortened: as §1
Structure (SMILES),MIC [1],MIC [2],MIC [3],MIC [4],MIC [5],MIC [6],MIC [7],MIC [8],MIC (Salmonella typhi 901),MIC [9],MIC [10],MIC [11],MIC [12],MIC [13],MIC [14],MIC [15],MIC [16],MIC [17],MIC [18],MIC (Proteus vulgaris OX-19),further results
[C-]#[N+]C12CC3(/C=C/C(=O)NOC)OC3C1O2 (stereo not drawn) [compound 81],25 µg/mL,25 µg/mL,12.5 µg/mL,25 µg/mL,12.5 µg/mL,12.5 µg/mL,200 µg/mL,12.5 µg/mL,6.25 µg/mL,6.25 µg/mL,12.5 µg/mL,6.25 µg/mL,200 µg/mL,50 µg/mL,200 µg/mL,200 µg/mL,> 200 µg/mL,25 µg/mL,100 µg/mL,50 µg/mL,MIC (Proteus vulgaris HX-19): 6.25 µg/mL; MIC [19]: 100 µg/mL; MIC [20]: > 200 µg/mL; MIC (Enterobacter cloacae 963): > 200 µg/mL; MIC [21]: 100 µg/mL; MIC [22]: 6.25 µg/mL; MIC [23]: 12.5 µg/mL; MIC [24]: < 0.2 µg/mL; MIC [25]: 12.5 µg/mL; MIC [26]: 6.25 µg/mL
[C-]#[N+]C12CC3(/C=C/C(=O)Nc4ccccc4O)OC3C1O2 (stereo not drawn) [compound 58],3.13 µg/mL,3.13 µg/mL,3.13 µg/mL,12.5 µg/mL,12.5 µg/mL,12.5 µg/mL,0.78 µg/mL,6.25 µg/mL,3.13 µg/mL,1.56 µg/mL,1.56 µg/mL,3.13 µg/mL,12.5 µg/mL,12.5 µg/mL,> 200 µg/mL,> 200 µg/mL,> 200 µg/mL,1.56 µg/mL,12.5 µg/mL,0.78 µg/mL,MIC (Proteus vulgaris HX-19): 0.78 µg/mL; MIC [19]: 1.56 µg/mL; MIC [20]: > 200 µg/mL; MIC (Enterobacter cloacae 963): 100 µg/mL; MIC [21]: 0.2 µg/mL; MIC [22]: 3.13 µg/mL; MIC [23]: 12.5 µg/mL; MIC [24]: < 0.2 µg/mL; MIC [25]: 12.5 µg/mL; MIC [26]: 12.5 µg/mL
[C-]#[N+]C12CC3(/C=C/C(=O)OCc4cccc(OC)c4)OC3C1O2 (stereo not drawn) [compound 12],1.56 µg/mL,3.13 µg/mL,0.78 µg/mL,3.13 µg/mL,6.25 µg/mL,6.25 µg/mL,0.39 µg/mL,6.25 µg/mL,3.13 µg/mL,3.13 µg/mL,3.13 µg/mL,3.13 µg/mL,12.5 µg/mL,1.56 µg/mL,> 100 µg/mL,> 100 µg/mL,> 100 µg/mL,1.56 µg/mL,3.13 µg/mL,0.78 µg/mL,MIC (Proteus vulgaris HX-19): < 0.1 µg/mL; MIC [19]: > 100 µg/mL; MIC [20]: > 100 µg/mL; MIC (Enterobacter cloacae 963): > 100 µg/mL; MIC [21]: < 0.1 µg/mL; MIC [22]: 3.13 µg/mL; MIC [23]: 3.13 µg/mL; MIC [24]: 0.4 µg/mL; MIC [25]: 1.56 µg/mL; MIC [26]: 3.13 µg/mL
[C-]#[N+]C12CC3(/C=C/C(=O)Nc4ccc(C(=O)OC)cc4)OC3C1O2 (stereo not drawn) [compound 49],< 0.05 µg/mL,< 0.05 µg/mL,< 0.05 µg/mL,12.5 µg/mL,50 µg/mL,50 µg/mL,< 0.05 µg/mL,0.39 µg/mL,0.1 µg/mL,< 0.05 µg/mL,< 0.05 µg/mL,0.39 µg/mL,12.5 µg/mL,0.78 µg/mL,> 200 µg/mL,> 200 µg/mL,> 200 µg/mL,12.5 µg/mL,> 200 µg/mL,< 0.05 µg/mL,MIC (Proteus vulgaris HX-19): < 0.05 µg/mL; MIC [19]: < 0.05 µg/mL; MIC [20]: > 200 µg/mL; MIC (Enterobacter cloacae 963): 25 µg/mL; MIC [21]: < 0.05 µg/mL; MIC [22]: < 0.05 µg/mL; MIC [23]: 25 µg/mL; MIC [24]: < 0.2 µg/mL; MIC [25]: 1.56 µg/mL; MIC [26]: 3.13 µg/mL
